Measurements taken from patent US12202805B2, “Process for preparing (5S)-{[2-(4-carboxyphenyl)ethyl] |2-(2-{|3-chloro-4'-(trifluoromethyl)biphenyl-4-yl]methoxy}phenyl)ethyl]aminol-5,6,7,8-tetrahydroquinoline-2-carboxylic acid and its crystalline forms for use as pharmaceutically active compound” (Bayer Aktiengesellschaft, priority 2021, dated 2025).
Several values for one entry are separate records, joined by “and”; a condition that tells them apart may be missing. Equal entries are not always repeated.

Tested on: thromboxane A2 challenged PAH-minipig
Experiment: Haemodynamics in the anesthetized thromboxane challenged minipig, intratracheal dry powder (PAP, BP)
Format: in vivo, Göttingen Minipigs
Conditions: for BP (absolute values) / PAP (absolute values): lactose vehicle first, test powder 1.5 mg/4 kg i.t. @90 min, each animal (n=3); for % changes vs. baseline on PAP: each animal
Description: Healthy Göttingen Minipigs® Ellegaard (Ellegaard, Denmark) of both sexes and having a weight of 2-6 kg were used. The animals were sedated by i.m. administration of about 25 mg/kg ketamine and about 10 mg/kg azaperone. Anaesthesia was initiated by i.v. administration of about 2 mg/kg ketamine and about 0.3 mg/kg midazolam. Maintenance of anaesthesia was by i.v. administration of about 7.5-30 mg/kg/h ketamine and about 1-4 mg/kg/h midazolam (rate of infusion 1-4 ml/kg/h) and about 150 μg/kg/h pancuronium bromide (for example Pancuronium-Actavis). After intubation, the animals were ventilated by the ventilator at a constant respiratory volume (10-12 ml/kg, 35 breaths/min; Avea®, Viasys Healthcare, USA, or Engström Carestation, GE Healthcare, Freiburg, Germany) such that an end-tidal CO2 concentration of about 5% was achieved. Ventilation was performed with room air, enriched with about 40% oxygen (normoxia). For the measurement of the haemodynamic parameters such as pulmonary arterial pressure (PAP), blood pressure (BP) and heart rate (HR), catheters were inserted into the carotid artery to measure the blood pressure, and a Swan-Ganz® catheter was introduced in a flow-directed manner via the jugular vein into the pulmonary artery. The haemodynamic signals were recorded and evaluated by means of pressure transducers (Combitransducer, B. Braun, Melsungen, Germany)/amplifiers and Ponemah® as data acquisition software.
As reference pure Lactose vehicle was applied in the beginning of each experiment.

[1] = time 0 min, 375 μg/kg i.t., sesquihydrate
[2] = time 10 min, 375 μg/kg i.t., sesquihydrate
[3] = time 20 min, 375 μg/kg i.t., sesquihydrate
[4] = time 20 min, listed as ex. 6e, sesquihydrate
[5] = time 30 min, listed as ex. 6e, sesquihydrate
[6] = time 40 min, listed as ex. 6e, sesquihydrate
[7] = time 50 min, 375 μg/kg i.t., sesquihydrate
[8] = time 50 min, listed as ex. 6e, sesquihydrate
[9] = time 60 min, 375 μg/kg i.t., sesquihydrate
[10] = time 60 min, listed as ex. 6e, sesquihydrate
[11] = time 70 min, 375 μg/kg i.t., sesquihydrate
[12] = time 70 min, listed as ex. 6e, sesquihydrate
[13] = time 80 min, 375 μg/kg i.t., sesquihydrate
[14] = time 80 min, listed as ex. 6e, sesquihydrate
[15] = time 90 min, 375 μg/kg i.t., sesquihydrate
[16] = time 90 min, listed as ex. 6e, sesquihydrate
[17] = time 100 min, 375 μg/kg i.t., sesquihydrate
[18] = time 100 min, listed as ex. 6e, sesquihydrate
[19] = time 110 min, 375 μg/kg i.t., sesquihydrate
[20] = time 110 min, listed as ex. 6e, sesquihydrate
[21] = time 120 min, 375 μg/kg i.t., sesquihydrate
[22] = time 120 min, listed as ex. 6e, sesquihydrate
[23] = time 130 min, listed as ex. 6e, sesquihydrate
[24] = time 140 min, listed as ex. 6e, sesquihydrate

O.O.O.O=C(O)c1ccc(CCN(CCc2ccccc2OCc2ccc(-c3ccc(C(F)(F)F)cc3)cc2Cl)[C@H]2CCCc3nc(C(=O)O)ccc32)cc1.O=C(O)c1ccc(CCN(CCc2ccccc2OCc2ccc(-c3ccc(C(F)(F)F)cc3)cc2Cl)[C@H]2CCCc3nc(C(=O)O)ccc32)cc1 [example 6e, (5S)—{[2-(4-Carboxyphenyl)ethyl][2-(2-{[3-chloro-4′-(trifluoromethyl)biphenyl-4-yl]methoxy}phenyl)-ethyl]amino}-5,6,7,8-tetrahydroquinoline-2-carboxylic acid sesquihydrate]
systemic blood pressure (375 μg/kg i.t., within the last hour of the observation interval): slightly affected | maximal effect achievable in this animal model (i.t. dry powder): maximal effect | time to maximum effect after i.t. application (i.t. dry powder, 1.5 mg/4 kg animal weight): approximately 80 min | effect on PAP and BP (i.t. via PennCentury dry powder insufflator, 1.5 mg/4 kg animal weight): decrease of PAP without any effects on BP | efficacy with regard to PAP reduction as well as systemic BP reduction (micronized hydrates, 1.5 mg/4 kg (=375 μg/kg) i.t.): comparable efficacy | BP (mean) [1]: 99 mmHg and 104 mmHg and 117 mmHg | PAP(mean) [1]: 41.9 mmHg and 37.1 mmHg and 37.5 mmHg | BP (mean) (time 10 min, 375 μg/kg i.t.): 99 mmHg | BP (mean) [2]: 108 mmHg and 119 mmHg | PAP(mean) [2]: 42.0 mmHg and 37.3 mmHg and 38.6 mmHg | BP (mean) (time 20 min, 375 μg/kg i.t.): 99 mmHg | BP (mean) [3]: 109 mmHg and 118 mmHg | PAP(mean) [3]: 41.4 mmHg | BP (absolute values) (time 20 min): 99 mmHg | BP (absolute values) [4]: 107 mmHg and 119 mmHg | PAP (absolute values) [4]: 42.0 mmHg and 36.4 mmHg and 37.5 mmHg | BP (mean) (time 30 min, 375 μg/kg i.t.): 100 mmHg | BP (mean) (time 30 min, 375 μg/kg i.t., sesquihydrate): 107 mmHg and 118 mmHg | BP (absolute values) [5]: 99 mmHg and 104 mmHg and 117 mmHg | PAP (absolute values) [5]: 41.9 mmHg and 37.1 mmHg and 37.5 mmHg | BP (mean) (time 40 min, 375 μg/kg i.t.): 100 mmHg | BP (absolute values) (time 40 min): 99 mmHg | BP (absolute values) [6]: 108 mmHg and 119 mmHg | PAP (absolute values) [6]: 42.0 mmHg and 37.3 mmHg and 38.6 mmHg | BP, % changes vs. prevalues [7]: 101.4% and 98.5% and 100.3% | PAP, % changes vs. prevalues [7]: 98.3% and 96.2% and 101.2% | BP (absolute values) (time 50 min): 99 mmHg | BP (absolute values) [8]: 109 mmHg and 118 mmHg | PAP (absolute values) [8]: 41.4 mmHg and 37.4 mmHg and 39.8 mmHg | BP, % changes vs. prevalues [9]: 102.5% and 100.3% and 99.4% | PAP, % changes vs. prevalues [9]: 97.2% and 99.6% and 101.1% | BP (absolute values) (time 60 min): 100 mmHg | BP (absolute values) [10]: 107 mmHg and 118 mmHg | PAP (absolute values) [10]: 41.4 mmHg and 36.8 mmHg and 41.2 mmHg | BP, % changes vs. prevalues [11]: 99.4% and 96.0% and 98.6% | PAP, % changes vs. prevalues [11]: 97.8% and 97.5% and 98.5% | BP (absolute values) (time 70 min): 100 mmHg | BP (absolute values) [12]: 109 mmHg and 118 mmHg | PAP (absolute values) [12]: 41.0 mmHg and 37.4 mmHg and 41.3 mmHg | % changes vs. baseline on PAP (time 80 min (baseline = 100.0), i.t. dry powder): 100.0% | BP, % changes vs. prevalues [13]: 101.4% and 96.8% and 97.7% | PAP, % changes vs. prevalues [13]: 87.8% and 94.9% and 87.9% | BP (absolute values) [14]: 101 mmHg and 114 mmHg and 119 mmHg | PAP (absolute values) [14]: 40.9 mmHg and 38.1 mmHg and 40.8 mmHg | BP, % changes vs. prevalues [15]: 101.4% and 98.5% and 96.9% | PAP, % changes vs. prevalues [15]: 82.5% and 92.0% and 76.6% | % changes vs. baseline on PAP (time 90 min, baseline 100.0 at 80 min, i.t. dry powder, sesquihydrate): 98.9% and 103.6% and 99.8% | BP (absolute values) (time 90 min): 102 mmHg | BP (absolute values) [16]: 116 mmHg and 118 mmHg | PAP (absolute values) [16]: 40.4 mmHg and 39.5 mmHg and 40.7 mmHg | BP, % changes vs. prevalues [17]: 101.4% and 98.5% and 96.9% | PAP, % changes vs. prevalues [17]: 77.6% and 90.1% and 71.1% | % changes vs. baseline on PAP (time 100 min, baseline 100.0 at 80 min, i.t. dry powder, sesquihydrate): 99.5% and 101.4% and 97.3% | BP (absolute values) (time 100 min): 99 mmHg | BP (absolute values) [18]: 111 mmHg and 117 mmHg | PAP (absolute values) [18]: 40.7 mmHg and 38.7 mmHg and 39.6 mmHg | BP, % changes vs. prevalues [19]: 99.4% and 103.7% and 96.1% | PAP, % changes vs. prevalues [19]: 74.0% and 88.3% and 68.4% | % changes vs. baseline on PAP (time 110 min, baseline 100.0 at 80 min, i.t. dry powder, sesquihydrate): 89.3% and 98.7% and 86.8% | BP (absolute values) [20]: 101 mmHg and 112 mmHg and 116 mmHg | PAP (absolute values) [20]: 36.5 mmHg and 37.6 mmHg and 35.4 mmHg | BP, % changes vs. prevalues [21]: 99.4% | PAP, % changes vs. prevalues [21]: 72.8% and 73.1% and 66.2% | % changes vs. baseline on PAP (time 120 min, baseline 100.0 at 80 min, i.t. dry powder, sesquihydrate): 84.0% and 95.6% and 75.7% | BP (absolute values) [22]: 101 mmHg and 114 mmHg and 115 mmHg | PAP (absolute values) [22]: 34.3 mmHg and 36.4 mmHg and 30.8 mmHg | PAP, % changes vs. prevalues (time 130 min, 375 μg/kg i.t., sesquihydrate): 69.8% | % changes vs. baseline on PAP (time 130 min, baseline 100.0 at 80 min, i.t. dry powder, sesquihydrate): 78.9% and 93.7% and 70.2% | BP (absolute values) [23]: 101 mmHg and 114 mmHg and 115 mmHg | PAP (absolute values) [23]: 32.3 mmHg and 35.7 mmHg and 28.6 mmHg | % changes vs. baseline on PAP (time 140 min, baseline 100.0 at 80 min, i.t. dry powder, sesquihydrate): 75.2% and 91.8% and 67.5% | BP (absolute values) [24]: 99 mmHg and 120 mmHg and 114 mmHg | PAP (absolute values) [24]: 30.8 mmHg and 35.0 mmHg and 27.5 mmHg | % changes vs. baseline on PAP (time 150 min, baseline 100.0 at 80 min, i.t. dry powder, sesquihydrate): 74.0% and 76.0% and 65.4%
